# ChEMBL document CHEMBL3351412, “Design, synthesis and biological evaluation of β-boswellic acid based HDAC inhibitors as inducers of cancer cell death” (Bioorg Med Chem Lett, 2014)
# Assays:
# MCF7 = assay: Cytotoxicity against human MCF7 cells; format: functional, cell-based
# [1] = Cytotoxicity against human HL60 cells; format: functional, cell-based; conditions: HL-60
# A549 = assay: Cytotoxicity against human A549 cells; format: functional, cell-based
# [2] = Cytotoxicity against human FR2 cells; format: cell-based
# [3] = Cytotoxicity against human MIAPaCa2 cells; format: functional, cell-based; conditions: MIA PaCa-2
# [4] = Cytotoxicity against human HCT116 cells; format: functional, cell-based; conditions: HCT-116
# Histone deacetylase = assay: Inhibition of HDAC (unknown origin); format: protein assay, Homo sapiens
# [5] = target: T1, Histone deacetylase (Homo sapiens) (UniProt Q13547+O15379+Q9UBN7+Q92769+Q9UQL6+Q8WUI4+Q9BY41+Q96DB2+P56524+Q9UKV0+Q969S8); assay: Inhibition of HDAC (unknown origin) at 30 uM; format: protein assay
# [6] = target: T1, Histone deacetylase (Homo sapiens); assay: Inhibition of HDAC (unknown origin) at 50 uM; format: protein assay
# [7] = Cell cycle arrest in human HL60 cells assessed as accumulation at G2/M phase at 1 uM by propidium iodide staining-based flow cytometry (reference value: 21.3%); format: functional; conditions: HL-60
# HL-60 [8] = assay: Induction of apoptosis in human HL60 cells assessed as loss of mitochondrial membrane potential in P5 quadrant at 1 uM by Rhodamine123 assay (reference value: 3.4%); format: functional
# [9] = Cell cycle arrest in human HL60 cells assessed as accumulation at sub-G1 phase at 1 uM by propidium iodide staining-based flow cytometry (reference value: 2.1%); format: functional; conditions: HL-60
# [10] = Cell cycle arrest in human HL60 cells assessed as accumulation at S phase at 1 uM by propidium iodide staining-based flow cytometry (reference value: 17.3%); format: functional; conditions: HL-60
# HL-60 [11] = assay: Induction of apoptosis in human HL60 cells assessed as loss of mitochondrial membrane potential in P4 quadrant at 1 uM by Rhodamine123 assay (reference value: 96.6%); format: functional
# [12] = Cell cycle arrest in human HL60 cells assessed as accumulation at G1 phase at 1 uM by propidium iodide staining-based flow cytometry (reference value: 58.9%); format: functional; conditions: HL-60
SMILES,IC50 (MCF7) [µM],IC50 [1] [µM],IC50 (A549) [µM],IC50 [2] [µM],IC50 [3] [µM],IC50 [4] [µM],IC50 (Histone deacetylase) [µM],inhibition [5] [%],inhibition [6] [%],Activity [7] [%],Activity (HL-60 [8]) [%],Activity [9] [%],Activity [10] [%],Activity (HL-60 [11]) [%],Activity [12] [%]
COC(=O)CCCCCCCC(=O)N[C@]1(C)[C@@H]2CC[C@]3(C)[C@H](CC=C4[C@@H]5[C@@H](C)[C@H](C)CC[C@]5(C)CC[C@]43C)[C@@]2(C)CC[C@H]1OC(C)=O,17,> 20,> 20,> 20,> 20,> 20,,,,,,,,,
C[C@H]1[C@H](C)CC[C@]2(C)CC[C@]3(C)C(=CC(=O)[C@@H]4[C@@]5(C)CC[C@@H](O)[C@](C)(NC(=O)CCCCC(=O)O)[C@@H]5CC[C@]43C)[C@H]12,18,> 20,19.1,> 20,14.1,> 20,,,,,,,,,
COC(=O)CCCCC(=O)N[C@]1(C)[C@@H]2CC[C@]3(C)[C@H](CC=C4[C@@H]5[C@@H](C)[C@H](C)CC[C@]5(C)CC[C@]43C)[C@@]2(C)CC[C@H]1OC(C)=O,13.8,> 20,> 20,> 20,> 20,> 20,,,,,,,,,
COC(=O)CCCCCCC(=O)N[C@]1(C)[C@@H]2CC[C@]3(C)[C@H](C(=O)C=C4[C@@H]5[C@@H](C)[C@H](C)CC[C@]5(C)CC[C@]43C)[C@@]2(C)CC[C@H]1OC(C)=O,< 0.25,> 20,2,> 20,8,15.7,,,,,,,,,
C[C@H]1[C@H](C)CC[C@]2(C)CC[C@]3(C)C(=CC(=O)[C@@H]4[C@@]5(C)CC[C@@H](O)[C@](C)(NC(=O)CCCCCCC(=O)O)[C@@H]5CC[C@]43C)[C@H]12,> 20,> 20,2.9,> 20,8.6,> 20,,,,,,,,,
C[C@H]1[C@H](C)CC[C@]2(C)CC[C@]3(C)C(=CC[C@@H]4[C@@]5(C)CC[C@@H](O)[C@](C)(NC(=O)CCCCCCCC(=O)NO)[C@@H]5CC[C@]43C)[C@H]12,6.4,12.4,15,> 20,11.9,11.8,> 50,34,45,,,,,,
O=C(CCCCCCC(=O)Nc1ccccc1)NO [VORINOSTAT],,,,,,,,,,17.1,4,2.8,14,96,65.3
C[C@H]1[C@H](C)CC[C@]2(C)CC[C@]3(C)C(=CC(=O)[C@@H]4[C@@]5(C)CC[C@@H](O)[C@](C)(NC(=O)CCCC(=O)O)[C@@H]5CC[C@]43C)[C@H]12,11.1,> 20,6.6,> 20,6,7.1,,,,,,,,,
CC(=O)O[C@@H]1CC[C@]2(C)[C@H]3CC=C4[C@@H]5[C@@H](C)[C@H](C)CC[C@]5(C)CC[C@@]4(C)[C@]3(C)CC[C@H]2[C@@]1(C)N,6.9,10,13.2,13.9,7.2,8.7,,,,,,,,,
COC(=O)CCCCC(=O)N[C@]1(C)[C@@H]2CC[C@]3(C)[C@H](C(=O)C=C4[C@@H]5[C@@H](C)[C@H](C)CC[C@]5(C)CC[C@]43C)[C@@]2(C)CC[C@H]1OC(C)=O,15.1,> 20,15.1,> 20,15.1,15.1,,,,,,,,,
C[C@H]1[C@H](C)CC[C@]2(C)CC[C@]3(C)C(=CC[C@@H]4[C@@]5(C)CC[C@@H](O)[C@](C)(NC(=O)CCCCC(=O)NO)[C@@H]5CC[C@]43C)[C@H]12,4.4,> 20,> 20,> 20,11.8,> 20,,,,,,,,,
C[C@H]1[C@H](C)CC[C@]2(C)CC[C@]3(C)C(=CC(=O)[C@@H]4[C@@]5(C)CC[C@@H](O)[C@](C)(NC(=O)CCCCCCCC(=O)O)[C@@H]5CC[C@]43C)[C@H]12,15.1,7.5,> 20,16.6,> 20,> 20,,,,,,,,,
"COC(=O)CCCC(=O)N[C@@]1(C)[C@H](OC(C)=O)CC[C@]2(C)C3CC=C4[C@@H]5[C@@H](C)[C@H](C)CC[C@]5(C)CC[C@@]4(C)[C@]3(C)CC[C@@H]12 (single isomer, unassigned)",8.7,17.1,> 20,> 20,11.4,19,,,,,,,,,
C[C@H]1[C@H](C)CC[C@]2(C)CC[C@]3(C)C(=CC[C@@H]4[C@@]5(C)CC[C@@H](O)[C@](C)(NC(=O)CCCCC(=O)O)[C@@H]5CC[C@]43C)[C@H]12,> 20,> 20,> 20,> 20,> 20,> 20,,,,,,,,,
C[C@H]1[C@H](C)CC[C@]2(C)CC[C@]3(C)C(=CC[C@@H]4[C@@]5(C)CC[C@@H](O)[C@](C)(NC(=O)CCCC(=O)O)[C@@H]5CC[C@]43C)[C@H]12,14.3,13.4,> 20,> 20,11,> 20,,,,,,,,,
C[C@H]1[C@H](C)CC[C@]2(C)CC[C@]3(C)C(=CC(=O)[C@@H]4[C@@]5(C)CC[C@@H](O)[C@](C)(NC(=O)CCCCC(=O)NO)[C@@H]5CC[C@]43C)[C@H]12,> 20,6.6,3.1,7.2,13.1,> 20,42,37,57,,,,,,
C[C@H]1[C@H](C)CC[C@]2(C)CC[C@]3(C)C(=CC(=O)[C@@H]4[C@@]5(C)CC[C@@H](O)[C@](C)(NC(=O)CCCCCCC(=O)NO)[C@@H]5CC[C@]43C)[C@H]12,4,3,6.9,4.3,8.7,5.2,> 50,12,39,,,,,,
C[C@H]1[C@H](C)CC[C@]2(C)CC[C@]3(C)C(=CC(=O)[C@@H]4[C@@]5(C)CC[C@@H](O)[C@](C)(NC(=O)CCCCCCCC(=O)NO)[C@@H]5CC[C@]43C)[C@H]12,11,> 20,> 20,> 20,> 20,12,48,31,52,,,,,,
C[C@H]1[C@H](C)CC[C@]2(C)CC[C@]3(C)C(=CC[C@@H]4[C@@]5(C)CC[C@@H](O)[C@](C)(NC(=O)CCCC(=O)NO)[C@@H]5CC[C@]43C)[C@H]12,3.6,11.7,> 20,> 20,8.8,> 20,34,46,54,,,,,,
C[C@H]1[C@H](C)CC[C@]2(C)CC[C@]3(C)C(=CC[C@@H]4[C@@]5(C)CC[C@@H](O)[C@](C)(NC(=O)CCCCCCCC(=O)O)[C@@H]5CC[C@]43C)[C@H]12,16.5,> 20,> 20,> 20,15.9,> 20,,,,,,,,,
CC(=O)O[C@@H]1CC[C@]2(C)[C@H]3C(=O)C=C4[C@@H]5[C@@H](C)[C@H](C)CC[C@]5(C)CC[C@@]4(C)[C@]3(C)CC[C@H]2[C@@]1(C)N,14,6.1,6,7.1,15.1,15.3,,,,,,,,,
COC(=O)CCCCCCCC(=O)N[C@]1(C)[C@@H]2CC[C@]3(C)[C@H](C(=O)C=C4[C@@H]5[C@@H](C)[C@H](C)CC[C@]5(C)CC[C@]43C)[C@@]2(C)CC[C@H]1OC(C)=O,2,10,10,17.2,6.1,18,,,,,,,,,
COC(=O)CCCC(=O)N[C@]1(C)[C@@H]2CC[C@]3(C)[C@H](C(=O)C=C4[C@@H]5[C@@H](C)[C@H](C)CC[C@]5(C)CC[C@]43C)[C@@]2(C)CC[C@H]1OC(C)=O,> 20,17.6,7.4,> 20,> 20,> 20,,,,,,,,,
COC(=O)CCCCCCC(=O)N[C@]1(C)[C@@H]2CC[C@]3(C)[C@H](CC=C4[C@@H]5[C@@H](C)[C@H](C)CC[C@]5(C)CC[C@]43C)[C@@]2(C)CC[C@H]1OC(C)=O,> 20,> 20,> 20,> 20,> 20,> 20,,,,,,,,,
C[C@H]1[C@H](C)CC[C@]2(C)CC[C@]3(C)C(=CC[C@@H]4[C@@]5(C)CC[C@@H](O)[C@](C)(NC(=O)CCCCCCC(=O)O)[C@@H]5CC[C@]43C)[C@H]12,> 20,> 20,> 20,> 20,> 20,> 20,,,,,,,,,
